# Entries after “also recorded” stand apart in the source; their conditions may differ.
# How the values were obtained:
# [1] = system: CaV1.3; experiment: FLIPR Ca2+ assay, inhibition of endogenous CaV1.3; type: cell-based, human; settings: for Ca2+ response relative to control response: 3 µM Xt3a pre-treatment, KCl 90 mM/CaCl2 5 mM, over 300 s
# Experimental: (§1) SH-SY5Y human neuroblastoma cells (European Collection of Authenticated Cell Culture, Sigma Aldrich, 94030304-1VL) were cultured in RPMI media (ThermoFisher Scientific, Scoresby, Australia) supplemented with 15% foetal bovine serum and L-glutamine (1 mM) and passaged at approximately 80% confluency with TrypLE Express (Thermo Fisher, Australia). For fluorescence imaging, cells were plated on CellBIND (Corning) 384-well black-walled imaging plates at a density of 20,000–30,000 cells/well in complete media and cultured for 48 h at 37 °C/5% CO2.
# Briefly, SH-SY5Y cells were loaded with Calcium 4 no-wash dye (Molecular Devices) diluted in physiological salt solution (composition in mM: NaCl 140, D-glucose 11.5, KCl 5.9, MgCl2 1.4, NaH2PO4 1.2, NaHCO3 5, CaCl2 1.8, HEPES 10) for 30 min at 37 °C. A two-addition FLIPR^Tetra (Molecular Devices) protocol using the following settings was used to measure fluorescence responses: excitation 470–495 nm; emission 515–575 nm; excitation intensity 80%; excitation duration 0.8 s; gain 140; read interval 1/s; read number 300/addition. Responses mediated via endogenously expressed ion channels were elicited by addition of: choline (30 μM)/PNU-120596 (10 μM) for α7 nAChR-mediated responses; nicotine (30 μM) for α3β2/α3β4 nAChR-mediated responses; KCl (90 mM)/CaCl2 (5 mM) for CaV1.3-mediated responses; KCl (90 mM)/CaCl2 (5 mM) + nifedipine (10 μM) for CaV2.2-mediated responses; vertridine (70 μM) for NaV1.2-mediated responses; and veratridine (4 μM)/OD1 (300 nM) for NaV1.7-mediated responses. Raw fluorescence readings were converted to response over baseline using the analysis tool Screenworks 3.1.1.4 (Molecular Devices) and were expressed relative to the maximum increase in fluorescence of control responses and plotted using GraphPad Prism 9.3.1.
# In the cell-based FLIPR assays statistical analysis was performed using GraphPad Prism 9.3.1. Statistical significance was defined as p < 0.05, and determined by one-sample t-test assessing difference to the control value of 100%. In α7 nAChR, α3-containing nAChR, CaV1.3, CaV2.2, NaV1.2 and NaV1.7 channels (Supplementary Fig. 5B), with distribution (t) and degrees of freedom (df) being: t = 0.9683, df = 2 (α7); t = 1.338, df = 2 (α3); t = 1.775, df = 2 (NaV1.2); t = 1.478
# [2] = molecular target: T1, RyR1 (Oryctolagus cuniculus, UniProt P11716); experiment: Washout (reversibility/avidity) single channel experiments, RyR1; type: biochemical, New Zealand white rabbit (skeletal SR)
# T1 construct: skeletal SR vesicles were isolated from the back and leg muscles of mature female New Zealand white rabbits; from tissue; host or cells: rabbit back and leg skeletal muscle, sarcoplasmic reticulum vesicles
# Experimental: Cardiac SR was prepared from mature female crossbred sheep hearts, and skeletal SR vesicles were isolated from the back and leg muscles of mature female New Zealand white rabbits[29],[54] with approval from the ANU Animal Experiment Ethics Committee Protocol Number A2015/35. […] Solutions for vesicle incorporation contained (mM): cis 230 caesium methanesulfonate (CsMS); 20 CsCl; 1 CaCl2 and 10 […] (TES) pH 7.4 and trans 30 CsMS; 20 CsCl; 1 CaCl2 10 TES; pH 7.4. SR vesicles routinely incorporated with the cytoplasmic surface of the SR and RyR facing the cis chamber. Following incorporation, 200 mM CsMS was added to the trans solution and the cis solution exchanged with recording solution containing (mM): 230 CsMS; 20 CsCl; 0.001 CaCl2;10 TES and pH 7.4, with [Ca^2+] set by a [BAPTA] determined using a Ca^2+ electrode. […] Electrophysiology experiments were analysed using Channel 2 (P.W. Gage, M. Smith, Australian National University) and Channel 3 (N.W. Laver, University of Newcastle, Australia) software, available from the authors upon request. […] Following most incorporation events, a single channel only was active in the bilayer and channel open probability (Po), mean open time (To), mean closed time (Tc) and open event frequency (Fo) were measured. […] In all experiments control channel activity was recorded for 3 to 5 min before exposure to the test compound. […]
# [3] = system: SH-SY5Y neuroblastoma cells; experiment: FLIPR intracellular Ca2+ assay, SH-SY5Y cells (direct response); type: cell-based, human; settings: Xt3a 3 µM
# Experimental: as §1
# Briefly, SH-SY5Y cells were loaded with Calcium 4 no-wash dye (Molecular Devices) diluted in physiological salt solution (composition in mM: NaCl 140, D-glucose 11.5, KCl 5.9, MgCl2 1.4, NaH2PO4 1.2, NaHCO3 5, CaCl2 1.8, HEPES 10) for 30 min at 37 °C. A two-addition FLIPR^Tetra (Molecular Devices) protocol using the following settings was used to measure fluorescence responses: excitation 470–495 nm; emission 515–575 nm; excitation intensity 80%; excitation duration 0.8 s; gain 140; read interval 1/s; read number 300/addition. […] Raw fluorescence readings were converted to response over baseline using the analysis tool Screenworks 3.1.1.4 (Molecular Devices) and were expressed relative to the maximum increase in fluorescence of control responses and plotted using GraphPad Prism 9.3.1.
# T1 sequence (P11716 whole entry): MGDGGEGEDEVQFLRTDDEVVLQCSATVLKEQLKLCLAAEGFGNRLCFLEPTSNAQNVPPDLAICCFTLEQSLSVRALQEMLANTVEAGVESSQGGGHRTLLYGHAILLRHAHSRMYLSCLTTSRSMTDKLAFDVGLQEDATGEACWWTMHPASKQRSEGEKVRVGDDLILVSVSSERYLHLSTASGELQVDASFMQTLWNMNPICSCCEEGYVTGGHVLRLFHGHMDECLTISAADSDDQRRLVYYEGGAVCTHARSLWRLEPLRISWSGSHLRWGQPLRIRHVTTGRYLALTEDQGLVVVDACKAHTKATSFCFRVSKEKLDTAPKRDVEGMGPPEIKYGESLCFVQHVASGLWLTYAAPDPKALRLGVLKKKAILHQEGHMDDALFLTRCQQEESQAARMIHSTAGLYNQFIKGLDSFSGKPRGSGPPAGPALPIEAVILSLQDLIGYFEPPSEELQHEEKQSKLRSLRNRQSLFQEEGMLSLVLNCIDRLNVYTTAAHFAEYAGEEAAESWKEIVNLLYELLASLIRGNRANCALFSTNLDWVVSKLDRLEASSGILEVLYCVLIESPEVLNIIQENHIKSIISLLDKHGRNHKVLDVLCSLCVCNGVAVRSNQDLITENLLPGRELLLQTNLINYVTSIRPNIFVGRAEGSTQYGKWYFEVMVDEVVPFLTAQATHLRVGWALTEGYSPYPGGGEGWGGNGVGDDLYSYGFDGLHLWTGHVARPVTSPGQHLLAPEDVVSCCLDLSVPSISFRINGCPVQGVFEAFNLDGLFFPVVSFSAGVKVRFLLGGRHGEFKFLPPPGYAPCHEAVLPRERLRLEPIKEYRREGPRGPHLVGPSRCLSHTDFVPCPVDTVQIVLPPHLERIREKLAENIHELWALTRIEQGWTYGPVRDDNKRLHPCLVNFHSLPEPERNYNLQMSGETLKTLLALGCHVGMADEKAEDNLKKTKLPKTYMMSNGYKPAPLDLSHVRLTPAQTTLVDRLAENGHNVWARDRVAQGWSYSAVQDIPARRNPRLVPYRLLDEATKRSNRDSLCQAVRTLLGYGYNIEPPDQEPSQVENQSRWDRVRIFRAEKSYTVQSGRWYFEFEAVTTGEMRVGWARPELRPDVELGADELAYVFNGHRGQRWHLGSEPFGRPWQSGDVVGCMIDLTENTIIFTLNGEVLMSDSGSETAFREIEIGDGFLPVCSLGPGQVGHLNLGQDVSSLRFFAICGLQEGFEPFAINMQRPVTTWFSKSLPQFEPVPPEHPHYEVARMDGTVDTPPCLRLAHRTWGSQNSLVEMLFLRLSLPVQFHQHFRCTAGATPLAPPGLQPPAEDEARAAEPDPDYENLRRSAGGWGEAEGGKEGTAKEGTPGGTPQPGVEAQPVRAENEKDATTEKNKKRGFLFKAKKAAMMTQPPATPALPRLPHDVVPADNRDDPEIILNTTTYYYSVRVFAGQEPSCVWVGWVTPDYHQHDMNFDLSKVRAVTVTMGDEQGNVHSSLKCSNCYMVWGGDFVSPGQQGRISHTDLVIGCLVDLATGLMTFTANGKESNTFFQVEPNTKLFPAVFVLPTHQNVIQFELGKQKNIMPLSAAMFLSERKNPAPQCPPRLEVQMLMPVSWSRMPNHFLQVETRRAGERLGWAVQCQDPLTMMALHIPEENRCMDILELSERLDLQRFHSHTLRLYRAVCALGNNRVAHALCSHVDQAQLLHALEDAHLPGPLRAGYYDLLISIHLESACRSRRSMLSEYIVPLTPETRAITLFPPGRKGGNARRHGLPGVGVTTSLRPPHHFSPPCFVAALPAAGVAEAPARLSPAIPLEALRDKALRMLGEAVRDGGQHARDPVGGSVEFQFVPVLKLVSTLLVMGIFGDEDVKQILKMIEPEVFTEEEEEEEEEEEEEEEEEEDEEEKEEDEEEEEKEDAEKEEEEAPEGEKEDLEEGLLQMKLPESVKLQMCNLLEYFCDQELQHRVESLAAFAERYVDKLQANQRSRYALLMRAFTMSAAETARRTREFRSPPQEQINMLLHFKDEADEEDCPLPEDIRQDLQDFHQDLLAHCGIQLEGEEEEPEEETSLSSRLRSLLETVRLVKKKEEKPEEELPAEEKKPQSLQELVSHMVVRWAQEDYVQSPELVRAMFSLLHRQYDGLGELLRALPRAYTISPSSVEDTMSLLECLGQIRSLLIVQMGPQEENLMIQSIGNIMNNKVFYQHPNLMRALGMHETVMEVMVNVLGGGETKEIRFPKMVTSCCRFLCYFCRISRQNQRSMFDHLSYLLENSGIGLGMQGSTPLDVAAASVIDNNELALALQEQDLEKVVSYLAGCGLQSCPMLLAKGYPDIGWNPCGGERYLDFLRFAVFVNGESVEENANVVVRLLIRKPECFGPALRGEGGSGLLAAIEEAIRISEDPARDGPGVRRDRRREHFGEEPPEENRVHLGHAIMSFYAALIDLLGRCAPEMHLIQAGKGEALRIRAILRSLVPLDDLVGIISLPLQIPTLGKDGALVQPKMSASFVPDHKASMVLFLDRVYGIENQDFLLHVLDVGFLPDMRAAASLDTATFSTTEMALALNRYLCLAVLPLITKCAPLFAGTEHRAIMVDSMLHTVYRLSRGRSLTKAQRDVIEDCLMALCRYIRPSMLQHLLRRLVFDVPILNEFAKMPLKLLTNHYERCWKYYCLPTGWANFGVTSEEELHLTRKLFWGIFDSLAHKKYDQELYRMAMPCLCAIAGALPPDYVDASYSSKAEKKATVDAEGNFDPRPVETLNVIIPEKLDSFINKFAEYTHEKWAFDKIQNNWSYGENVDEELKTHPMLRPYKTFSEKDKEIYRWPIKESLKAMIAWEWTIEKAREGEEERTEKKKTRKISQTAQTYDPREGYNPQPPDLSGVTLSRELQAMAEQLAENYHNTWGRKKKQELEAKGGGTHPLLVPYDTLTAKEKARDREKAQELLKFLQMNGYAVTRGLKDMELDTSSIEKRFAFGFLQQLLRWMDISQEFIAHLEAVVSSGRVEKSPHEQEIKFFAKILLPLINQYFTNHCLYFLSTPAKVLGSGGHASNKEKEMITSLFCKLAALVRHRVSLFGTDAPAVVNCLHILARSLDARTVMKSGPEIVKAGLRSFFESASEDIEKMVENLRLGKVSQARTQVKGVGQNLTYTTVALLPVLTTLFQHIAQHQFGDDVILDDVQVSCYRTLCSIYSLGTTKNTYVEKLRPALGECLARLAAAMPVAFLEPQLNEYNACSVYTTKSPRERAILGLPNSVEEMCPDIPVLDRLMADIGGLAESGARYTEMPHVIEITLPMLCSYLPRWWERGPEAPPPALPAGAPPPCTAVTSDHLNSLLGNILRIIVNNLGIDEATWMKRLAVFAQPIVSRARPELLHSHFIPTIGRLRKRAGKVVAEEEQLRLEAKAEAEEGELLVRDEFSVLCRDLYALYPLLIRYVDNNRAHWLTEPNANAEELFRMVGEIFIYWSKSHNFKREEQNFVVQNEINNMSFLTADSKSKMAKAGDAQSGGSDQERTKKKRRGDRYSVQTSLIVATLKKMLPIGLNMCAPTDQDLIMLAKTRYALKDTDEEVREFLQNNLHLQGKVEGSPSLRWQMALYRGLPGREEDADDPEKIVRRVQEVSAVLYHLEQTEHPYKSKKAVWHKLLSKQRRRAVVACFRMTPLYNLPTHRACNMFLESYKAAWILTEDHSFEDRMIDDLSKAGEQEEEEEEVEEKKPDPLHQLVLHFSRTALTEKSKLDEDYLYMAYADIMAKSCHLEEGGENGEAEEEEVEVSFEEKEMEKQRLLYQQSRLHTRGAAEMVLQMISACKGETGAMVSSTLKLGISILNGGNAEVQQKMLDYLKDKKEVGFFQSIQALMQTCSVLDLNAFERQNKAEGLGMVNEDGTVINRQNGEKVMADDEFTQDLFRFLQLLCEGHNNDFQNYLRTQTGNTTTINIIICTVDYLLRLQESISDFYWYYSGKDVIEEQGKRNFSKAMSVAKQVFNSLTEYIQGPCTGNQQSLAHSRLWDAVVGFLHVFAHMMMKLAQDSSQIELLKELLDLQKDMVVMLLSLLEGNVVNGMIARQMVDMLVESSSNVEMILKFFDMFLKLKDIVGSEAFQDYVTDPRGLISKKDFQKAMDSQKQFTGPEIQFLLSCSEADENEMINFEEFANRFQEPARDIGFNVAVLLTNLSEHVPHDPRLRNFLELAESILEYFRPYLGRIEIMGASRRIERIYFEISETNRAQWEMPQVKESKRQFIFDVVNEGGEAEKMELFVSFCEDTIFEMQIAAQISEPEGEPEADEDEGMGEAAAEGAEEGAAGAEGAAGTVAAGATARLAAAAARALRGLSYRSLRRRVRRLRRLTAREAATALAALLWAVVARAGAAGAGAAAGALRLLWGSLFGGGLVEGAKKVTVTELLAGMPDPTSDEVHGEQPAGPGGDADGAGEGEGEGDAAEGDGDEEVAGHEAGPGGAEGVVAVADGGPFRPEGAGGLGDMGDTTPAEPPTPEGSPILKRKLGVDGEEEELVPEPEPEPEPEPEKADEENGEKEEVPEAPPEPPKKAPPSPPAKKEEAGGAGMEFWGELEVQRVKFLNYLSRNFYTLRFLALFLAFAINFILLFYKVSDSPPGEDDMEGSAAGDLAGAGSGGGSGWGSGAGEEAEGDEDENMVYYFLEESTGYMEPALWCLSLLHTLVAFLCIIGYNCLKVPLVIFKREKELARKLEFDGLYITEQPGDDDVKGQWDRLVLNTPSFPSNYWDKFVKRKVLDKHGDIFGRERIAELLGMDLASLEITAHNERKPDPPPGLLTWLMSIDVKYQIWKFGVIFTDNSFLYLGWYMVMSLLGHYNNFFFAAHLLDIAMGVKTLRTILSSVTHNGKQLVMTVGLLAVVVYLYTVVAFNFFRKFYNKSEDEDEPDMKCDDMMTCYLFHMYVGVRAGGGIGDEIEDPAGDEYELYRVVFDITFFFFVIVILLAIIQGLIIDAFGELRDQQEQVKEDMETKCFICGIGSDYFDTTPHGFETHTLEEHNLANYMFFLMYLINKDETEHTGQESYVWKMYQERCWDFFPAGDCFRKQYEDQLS
substance,measurement,setting,value
φ-Xibalbin3-Xt3a,Ca2+ response relative to control response,[1]; replicate 1,100.265%
same,Ca2+ response relative to control response,[1]; replicate 2,98.0302%
same,Ca2+ response relative to control response,[1]; replicate 3,95.1795%
same,inhibition of Ca2+ responses,[1]; Xt3a 3 µM,did not inhibit Ca^2+ responses
same,reversibility on washout,"[2]; 100 pM, 10 nM and 1 μM, early (2 to 3 min) and late (15 to 23 min) after washout",no significant washout of Xt3a effect was observed; also recorded: persistent activity after washout in our single-channel recordings for as long as the bilayers lasted
same,sub-state activity during washout,[2]; maintained for as long as the bilayer lasted,sub-state activity increased during the washout period
same,increase in intracellular Ca2+,[3],did not elicit an increase in intracellular Ca^2+; also recorded: does not elicit an increase in intracellular Ca2+ responses

# — paper PMC9950431, “A bivalent remipede toxin promotes calcium release via ryanodine receptor activation” (Nature Communications, 2023)
